Where “and” joins values, the source holds several entries; their conditions need not be identical. Equal values may be shown once. Square brackets hold non-standard residues; d marks the D form. Peptide text beside a SMILES is read from it. d(aIle) = CC[C@H](C)[C@@H](N)C(=O)O
Experiments:
[1] = biological target: T1, endothelin receptor (membrane of smooth muscle tissue of porcine aorta) (Sus scrofa, UniProt Q29010); assay: Endothelin binding inhibition test (125I-endothelin-1, porcine aorta smooth muscle membrane); settings: 1.1 μM of the test compound, porcine aorta smooth muscle membrane, 25° C, 4 hours; for inhibition at 1.1 µM: read-out: 125I-endothelin-1 binding inhibition, Inhibition (%)
T1 construct: from tissue; host or cells: smooth muscle tissue of porcine aorta (membrane fraction)
T1 sequence (Q29010 21-427): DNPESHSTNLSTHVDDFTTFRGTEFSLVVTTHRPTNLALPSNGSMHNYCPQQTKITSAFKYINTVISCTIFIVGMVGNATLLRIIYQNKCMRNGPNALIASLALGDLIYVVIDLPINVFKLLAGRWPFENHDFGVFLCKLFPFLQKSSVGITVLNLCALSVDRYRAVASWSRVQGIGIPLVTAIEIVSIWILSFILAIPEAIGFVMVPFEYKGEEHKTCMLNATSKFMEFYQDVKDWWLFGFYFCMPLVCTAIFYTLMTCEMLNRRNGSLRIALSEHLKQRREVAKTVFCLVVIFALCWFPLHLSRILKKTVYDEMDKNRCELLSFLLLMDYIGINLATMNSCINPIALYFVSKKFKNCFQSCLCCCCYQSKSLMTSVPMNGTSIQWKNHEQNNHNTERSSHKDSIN
In short: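 Porcine aortic smooth muscle membranes incubated with ^125I-endothelin-1 (12000-18000 cpm) and test compound at 1.1 μM final in Tris/HCl pH 7.4 with protease inhibitors and 0.1% BSA, 4 h at 25 °C. Filter-bound radioactivity counted, nonspecific binding defined with 0.2 μM endothelin-1; % binding inhibition in triplicate.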

[2] = test system: isolated porcine coronary artery (endothelin-1-induced contraction); assay: Activities against endothelin-induced contraction of isolated porcine coronary arteries; parameters: species or system pig; settings: for shift of the concentration-response curve of endothelin-1: added 20 minutes prior to endothelin-1
Experimental: Activities against endothelin-induced contraction of isolated procine coronary arteries
The coronary artery of pig was extracted, and a spiral preparation having a width of 1 mm and a length of 10 mm was prepared therefrom. The preparation having the endothelial cells denuded, was hanged in a 5 ml organ bath filled wit a Krebs.Henseleit solution saturated with a gas mixture of 95% O2 and 5% CO2, and the change in the tension was isometrically measured and recorded.
(§1) Endothelin-1 was added into the organ bath in a cumulatively increasing manner, whereby the influence of the compound of the present invention to the concentration-response curve for endothelin-1 was examined. The compound of the present invention was added into the organ bath 20 minutes prior to the addition of endothelin-1.

[3] = test system: isolated guinea pig trachea (endothelin-1-induced contraction); assay: Activities against endothelin-induced contraction of isolated guinea pig trachea; settings: for shift of the concentration-response curve for endothelin-1: added 20 minutes prior to endothelin-1
Experimental: Activities aqainst endothelin-induced contraction of isolated guinea pig trachea
The trachea of a guinea pig was extracted, and the trachea was cut into rings to afford the preparation. A preparation having the endothelial cells denuded, was hanged in a 5 ml organ bath filled with a Krebs.Henseleit solution saturated with a gas mixture of 95% O2 and 5% CO2, and the change in the tension was isometrically measured and recorded.
as §1, with “manner, and” for “manner, whereby”, “for endothelin” for “for endothelin-1”

[4] = test system: mice (endotoxin-induced mortality); assay: Endotoxin shock: endotoxin-induced mortality in mice; assay type: in vivo, mouse; settings: for Survived number/number of the tested animals / survival rate (%): compound 100 × 2 mg/kg i.p.
Experimental: (§2) Activities against an endotoxin shock
(§3) To a male ddy mouse, endotoxin (Lipopolysaccharide derived from E. coli 055:B5) dissolved in a 0.15% sodium hydrogencarbonate aqueous solution, was intravenously administered via the tail vein at a dose of 30 mg/kg, whereupon a distinct body temperature lowering effect was observed.
The intravenous administration of endotoxin via the tail vein at a high dose (100 mg/kg) killed mice in all cases (10/10) within 48 hours.

[5] = test system: male ddy mouse (endotoxin-induced body temperature lowering); assay: Endotoxin shock: endotoxin-induced body temperature lowering in mice; assay type: in vivo; settings: endotoxin 30 mg/kg i.v., compound 100 mg/kg i.p. 30 minutes prior to and 30 minutes subsequent to endotoxin
Experimental: as §2, §3

[6] = test system: isolated rat heart (endothelin-1-induced increase of perfusion pressure); assay: Effects on the increased perfusion pressure induced by endothelin in isolated rat heart
Experimental: Effects on the increased perfusion pressure induced by endothelin in isolated rat heart
The heart of a male Sprague Dohrie (SD) rat was extracted, and the perfusion pressure was measured and recorded by a Langendorff's method. The perfusion pressure was evaluated on the basis that the state where a Krebs.Henseleit solution saturated with a gas mixture of 95% O2 and 5% CO2 was infused at a rate of 10 ml/min, was taken as a standard.
Endothelin-1 was cumulatively added to the perfusate, whereby the influence of the compound to the concentration-response curve for endothelin-1 was examined. The compound of the present invention which was dissolved in the perfusate had been infused from 20 minutes prior to the addition of endothelin-1 till just after finishing measurement of the concentration-response curve for endothelin-1.

[7] = test system: isolated porcine basilar artery (endothelin-1-induced contraction); assay: Activities against endothelin-induced contraction of isolated porcine basilar artery; parameters: species or system pig; settings: compound 2 μM
Experimental: Activities aqainst endothelin-induced contraction of isolated porcine basilar artery
The arteria basilaris of pig was extracted, and then a ring preparation with a width of 4 mm was prepared. After denuded the endothelial cells, the preparation was hanged in a 5 ml organ bath filled with a Krebs.Henseleit solution saturated with a gas mixture of 95% O2 and 5% CO2, and the change in the tension was isometrically measured and recorded.
as §1

[8] = 24 hr after endotoxin (100 mg/kg i.v.)
[9] = 48 hr after endotoxin (100 mg/kg i.v.)
[10] = 96 hr after endotoxin (100 mg/kg i.v.)

CC(C)C[C@@H]1NC(=O)[C@@H](C(C)C)NC(=O)[C@H](C)NC(=O)[C@@H](CC(=O)O)NC(=O)[C@@H](Cc2c[nH]c3ccccc23)NC1=O [Example 12, cyclo(-DTrp-DAsp-Ala-DVal-Leu-)] (cyclo(A[dV]L[dW][dD]))
inhibition at 1.1 µM [1]: 75% | effect on the maximum response to endothelin-1 ([2]; compound 3 μM): did not affect the maximum response | shift of the concentration-response curve of endothelin-1 ([2]; compound 3 μM): remarkably shifted the concentration-response curves of endothelin-1 to the right

CC(C)C[C@@H]1NC(=O)[C@@H](C(C)C)NC(=O)[C@@H]2CCCN2C(=O)[C@@H](CC(=O)O)NC(=O)[C@@H](Cc2c[nH]c3ccccc23)NC1=O [Example 15, cyclo(-DTrp-DAsp-Pro-DVal-Leu-)] (cyclo(L[dW][dD]P[dV]))
effect on the maximum response to endothelin-1 ([3]; compound 2 μM): did not affect the maximum response | shift of the concentration-response curve for endothelin-1 ([3]; compound 2 μM): remarkably shifted the concentration-response curves for endothelin-1 to the right | inhibition at 1.1 µM [1]: 85% | Survived number/number of the tested animals [4, 8]: 10/10 | survival rate (%) [4, 8]: 100% | Survived number/number of the tested animals [4, 9]: 6/10 | survival rate (%) [4, 9]: 60% | Survived number/number of the tested animals [4, 10]: five cases out of ten cases survived and 5/10 | survival rate (%) [4, 10]: 50% | effect on endotoxin-induced mortality ([4]; endotoxin 100 mg/kg i.v., compound 100 mg/kg i.p. 30 minutes before and after endotoxin): a distinct reduction in the mortality was observed | effect on the maximum response to endothelin-1 ([2]; compound 2 μM): did not affect the maximum response | shift of the concentration-response curve of endothelin-1 ([2]; compound 2 μM): remarkably shifted the concentration-response curves of endothelin-1 to the right | effect on the endotoxin-induced body temperature lowering [5]: showed remarkable antagonistic activities against the endotoxin-induced body temperature lowering effect

cyclo(-DTro-DCys(O3 Na)-Pro-DVal-Leu-) [Example 3]
effect on the maximum response to endothelin-1 (perfusion pressure) ([6]; compound 1 μM): did not affect the maximum response | shift of the concentration-response curve for endothelin-1 (perfusion pressure) ([6]; compound 1 μM in the perfusate from 20 minutes prior to endothelin-1, Langendorff): moved the concentration-response curve for endothelin-1 to the right | effect on the maximum response to endothelin-1 ([3]; compound 6 μM): did not affect the maximum response | shift of the concentration-response curve for endothelin-1 ([3]; compound 6 μM): remarkably shifted the concentration-response curves for endothelin-1 to the right | 125I-endothelin-1 binding inhibition, Inhibition (%) [1]: 85% | effect on the maximum response to endothelin-1 ([2]; compound 2 μM): did not affect the maximum response | shift of the concentration-response curve of endothelin-1 ([2]; compound 2 μM): remarkably shifted the concentration-response curves of endothelin-1 to the right | effect on the maximum response to endothelin-1 [7]: did not affect the maximum response | shift of the concentration-response curve for endothelin-1 ([7]; added 20 minutes prior to endothelin-1): remarkably shifted the concentration-response curve for endothelin-1 to the right

cyclo([dW][dD]P[d(aIle)]L) [Example 32]
125I-endothelin-1 binding inhibition, Inhibition (%) [1]: 87%

cyclo([dW][dD]P[dV]L) [Example 30]
125I-endothelin-1 binding inhibition, Inhibition (%) [1]: 72%

cyclo([dW][dE]A[d(aIle)]L) [Example 8]
125I-endothelin-1 binding inhibition, Inhibition (%) [1]: 37%

— patent US5114918A, “Endothelin antagonistic cyclic pentapeptides” (Banyu Pharmaceutical Co., Ltd., priority 1989, dated 1992)
